Assay results taken from patent US8846653B2, “Delta-tocotrienol treatment and prevention of pancreatic cancer” (University of South Florida, priority 2006, dated 2014).

Key:
MiaPaCa-2 cells = experiment: MTS assay of MiaPaCa2 cultures, single 50 μM dose; assay type: cell-based, human; settings: MiaPaCa2, 50 μM
Experimental: MiaPaCa-2 cells were cultured in complete DMEM media containing 10% fetal bovine serum (FBS) and 1% penicillin-streptomycin, and 1% L-glutamine. BxPc-3 pancreatic cancer cells were cultured in complete RPMI media containing 10% fetal bovine serum (FBS), and 1% penicillin-streptomycin, 1% HEPES buffer, 1% sodium pyruvate and 1% L-glutamine HPDE6-C7 cells were cultured in serum-free keratinocyte SFM media. All cells were maintained at 37° C. in a humidified incubator with 5% CO2. The cells were treated with a single 50 μM dose of vehicle (vehicle only, may be a solvent), T3 alpha (alpha tocotrienol), T3 beta (beta tocotrienol), T3 gamma (gamma tocotrienol), T3 delta (delta tocotrienol), T alpha (alpha tocopherol), T beta (beta tocopherol), TS (tocopherol succinate), GG (geranylgeraniol), SA (succinic acid). A control (no treatment) culture was grown alongside the treatments for comparison. […]

[1] = test system: human pancreatic ductal epithelial cells transformed with oncogenic K-ras (HPDE-K-ras); experiment: Proliferation (MTT) of K-ras transformed ductal epithelial cells; assay type: cell-based; settings: 72 hours
Experimental: FIGS. 36A and B are graphs showing the effect of tocotrienols on Human Pancreatic Ductal Epithelial Kras Transformed cells (MTT). (A) Tocotrienols (10-100 μM) had no effect on the proliferation of normal immortalized human pancreatic ductal epithelial cells at 72 hours. […] Points, means; bars, SE (n=3). *p<0.001 vs. vehicle. # p<0.02 vs. vehicle
The Ras effector pathways Raf-MEK-ERK and PI3 kinase-AKT are important for cell proliferation and survival, respectively. Pancreatic cancer cell lines (MIA PaCa2, SW1990, BXPC3) and HPDE 6C7 cells were treated with 8-tocotrienol (20 μM) and cell lysates were collected and prepared at progressive time intervals as described above. Proteins from lysates were run by SDS PAGE and immunoblotted with the following antibodies: Ras, p-cRaf (ser 338), p-MEK1/2, MEK1/2, pERK 44/42, ERK 44/42 (Cell Signaling) and c-Raf (BD Transduction Laboratories). […] The MIA PaCa2 and SW1990 cells were then tested for AKT inhibition. The cells were treated with δ-tocotrienol (20 μM) for 24 and 48 hours and cell lysates were run by SDS-PAGE and immunoblotted for p-AKT and AKT (Cell Signaling). […] Taken together, the inhibition of downstream effectors of oncogenic Ras signaling by δ-tocotrienol without an effect on Ras protein levels may indicate a negative regulatory role of 8-tocotrienol on the function of oncogenic Ras. The pancreatic ductal epithelial cell proliferative inhibition by δ-tocotrienol was tested to see if it occurs through blocking aberrant signal transduction cascades. Immortalized human pancreatic ductal epithelial cells (HPDE) and human pancreatic ductal epithelial cells that were transformed by stable transfection of a mutated K-ras oncogene (HPDE-K-ras) were used to test the. effect of tocotrienols on the proliferation of HPDE and HPDE-K-ras.

Row | Compound | rel amt (relative value set to the control) (MiaPaCa-2 cells; 24 hours) | MTS assay result, run 1 (MiaPaCa-2 cells; 24 hours) | MTS assay result, run 2 (MiaPaCa-2 cells; 24 hours) | MTS assay result, run 3 (MiaPaCa-2 cells; 24 hours) | MTS assay result, run 4 (MiaPaCa-2 cells; 24 hours) | MTS assay result, run 5 (MiaPaCa-2 cells; 24 hours) | MTS assay result, run 6 (MiaPaCa-2 cells; 24 hours) | MTS assay result, run 7 (MiaPaCa-2 cells; 24 hours) | MTS assay result, run 8 (MiaPaCa-2 cells; 24 hours) | MTS assay result, run 9 (MiaPaCa-2 cells; 24 hours) | rel amt (relative value set to the control) (MiaPaCa-2 cells; 48 hours) | MTS assay result, run 1 (MiaPaCa-2 cells; 48 hours) | MTS assay result, run 2 (MiaPaCa-2 cells; 48 hours) | MTS assay result, run 3 (MiaPaCa-2 cells; 48 hours) | MTS assay result, run 4 (MiaPaCa-2 cells; 48 hours) | MTS assay result, run 5 (MiaPaCa-2 cells; 48 hours) | MTS assay result, run 6 (MiaPaCa-2 cells; 48 hours) | MTS assay result, run 7 (MiaPaCa-2 cells; 48 hours) | MTS assay result, run 8 (MiaPaCa-2 cells; 48 hours) | MTS assay result, run 9 (MiaPaCa-2 cells; 48 hours) | further results
1 | CC(C)=CCC/C(C)=C/CC/C(C)=C/CC/C(C)=C/CO [GG, geranylgeraniol] | 82 | 0.186 | 0.166 | 0.175 | 0.18 | 0.196 | 0.199 | 0.184 | 0.178 | 0.183 | 53 | 0.154 | 0.194 | 0.181 | 0.198 | 0.236 | 0.198 | 0.193 | 0.192 | 0.193 | rel amt (relative value set to the control) (MiaPaCa-2 cells; 72 hours): 158; MTS assay result, run 1 (MiaPaCa-2 cells; 72 hours): 0.784; MTS assay result, run 2 (MiaPaCa-2 cells; 72 hours): 0.713; MTS assay result, run 3 (MiaPaCa-2 cells; 72 hours): 0.757; MTS assay result, run 4 (MiaPaCa-2 cells; 72 hours): 0.734; MTS assay result, run 5 (MiaPaCa-2 cells; 72 hours): 0.682; MTS assay result, run 6 (MiaPaCa-2 cells; 72 hours): 0.665; MTS assay result, run 7 (MiaPaCa-2 cells; 72 hours): 0.65; MTS assay result, run 8 (MiaPaCa-2 cells; 72 hours): 0.627; MTS assay result, run 9 (MiaPaCa-2 cells; 72 hours): 0.702
2 | O=C(O)CCC(=O)O [SA, succinic acid] | 105 | 0.24 | 0.248 | 0.25 | 0.245 | 0.236 | 0.219 | 0.214 | 0.204 | 0.232 | 90 | 0.334 | 0.335 | 0.333 | 0.304 | 0.32 | 0.294 | 0.352 | 0.348 | 0.328 | rel amt (relative value set to the control) (MiaPaCa-2 cells; 72 hours): 114; MTS assay result, run 1 (MiaPaCa-2 cells; 72 hours): 0.596; MTS assay result, run 2 (MiaPaCa-2 cells; 72 hours): 0.547; MTS assay result, run 3 (MiaPaCa-2 cells; 72 hours): 0.566; MTS assay result, run 4 (MiaPaCa-2 cells; 72 hours): 0.515; MTS assay result, run 5 (MiaPaCa-2 cells; 72 hours): 0.544; MTS assay result, run 6 (MiaPaCa-2 cells; 72 hours): 0.44; MTS assay result, run 7 (MiaPaCa-2 cells; 72 hours): 0.397; MTS assay result, run 8 (MiaPaCa-2 cells; 72 hours): 0.427; MTS assay result, run 9 (MiaPaCa-2 cells; 72 hours): 0.504
3 | CC(C)=CCC/C(C)=C/CC/C(C)=C/CC[C@]1(C)CCc2c(C)c(O)cc(C)c2O1 [T3 beta, beta tocotrienol] | 79 | 0.17 | 0.179 | 0.184 | 0.152 | 0.172 | 0.182 | 0.179 | 0.19 | 0.176 | 61 | 0.193 | 0.137 | 0.227 | 0.223 | 0.231 | 0.272 | 0.225 | 0.27 | 0.222 | proliferation (MTT) [1]: significantly inhibited; rel amt (relative value set to the control) (MiaPaCa-2 cells; 72 hours): 69; MTS assay result, run 1 (MiaPaCa-2 cells; 72 hours): 0.349; MTS assay result, run 2 (MiaPaCa-2 cells; 72 hours): 0.316; MTS assay result, run 3 (MiaPaCa-2 cells; 72 hours): 0.328; MTS assay result, run 4 (MiaPaCa-2 cells; 72 hours): 0.298; MTS assay result, run 5 (MiaPaCa-2 cells; 72 hours): 0.323; MTS assay result, run 6 (MiaPaCa-2 cells; 72 hours): 0.287; MTS assay result, run 7 (MiaPaCa-2 cells; 72 hours): 0.281; MTS assay result, run 8 (MiaPaCa-2 cells; 72 hours): 0.275; MTS assay result, run 9 (MiaPaCa-2 cells; 72 hours): 0.307
4 | Cc1c(O)cc2c(c1C)O[C@](C)(CCC[C@H](C)CCC[C@H](C)CCCC(C)C)CC2 [T gamma] | 121 | 0.273 | 0.261 | 0.268 | 0.219 | 0.264 | 0.31 | 0.295 | 0.263 | 0.269 | 81 | 0.329 | 0.265 | 0.304 | 0.25 | 0.289 | 0.341 | 0.301 | 0.279 | 0.295 | rel amt (relative value set to the control) (MiaPaCa-2 cells; 72 hours): 108; MTS assay result, run 1 (MiaPaCa-2 cells; 72 hours): 0.5; MTS assay result, run 2 (MiaPaCa-2 cells; 72 hours): 0.497; MTS assay result, run 3 (MiaPaCa-2 cells; 72 hours): 0.46; MTS assay result, run 4 (MiaPaCa-2 cells; 72 hours): 0.505; MTS assay result, run 5 (MiaPaCa-2 cells; 72 hours): 0.515; MTS assay result, run 6 (MiaPaCa-2 cells; 72 hours): 0.469; MTS assay result, run 7 (MiaPaCa-2 cells; 72 hours): 0.429; MTS assay result, run 8 (MiaPaCa-2 cells; 72 hours): 0.451; MTS assay result, run 9 (MiaPaCa-2 cells; 72 hours): 0.478
5 | Cc1c(C)c2c(c(C)c1OC(=O)CCC(=O)O)CC[C@@](C)(CCC[C@H](C)CCC[C@H](C)CCCC(C)C)O2 [TS, tocopherol succinate] | 96 | 0.24 | 0.211 | 0.226 | 0.172 | 0.221 | 0.201 | 0.214 | 0.228 | 0.214 | 76 | 0.257 | 0.254 | 0.262 | 0.237 | 0.258 | 0.275 | 0.32 | 0.337 | 0.275 | rel amt (relative value set to the control) (MiaPaCa-2 cells; 72 hours): 207; MTS assay result, run 1 (MiaPaCa-2 cells; 72 hours): 0.998; MTS assay result, run 2 (MiaPaCa-2 cells; 72 hours): 0.962; MTS assay result, run 3 (MiaPaCa-2 cells; 72 hours): 1.016; MTS assay result, run 4 (MiaPaCa-2 cells; 72 hours): 0.887; MTS assay result, run 5 (MiaPaCa-2 cells; 72 hours): 0.936; MTS assay result, run 6 (MiaPaCa-2 cells; 72 hours): 0.897; MTS assay result, run 7 (MiaPaCa-2 cells; 72 hours): 0.85; MTS assay result, run 8 (MiaPaCa-2 cells; 72 hours): 0.801; MTS assay result, run 9 (MiaPaCa-2 cells; 72 hours): 0.918
